Experimental data: US20230310660A1, “SHELF-STABLE INDOCYANINE GREEN SOLUTIONS AND METHODS OF MAKING THE SAME” (CAO Group, Inc., priority 2020, published 2023)

Columns and labels:
[1] = Shelf stability of indocyanine green dissolved in water-free organic solvent; assay type: physicochemical; conditions: absence of water, room temperature
Text: Through experimentation, it has been determined that the biggest cause of instability within ICG solutions to be nothing other than water and the second most recognizable factor is temperature. Therefore, with the instability factors identified the present invention identifies by way of experimentation with other solutions within which ICG is stable. An embodiment of the present invention utilizes organic liquids to create shelf stable ICG solutions. The present invention is a method of creating a shelf-stable, liquid, indocyanine green solution.
More importantly, the type of organic solvent selected is not the important factor for stability—only the absence of water is required.
When creating the solution, the manufacturing method is to add the ICG to the solvent(s) and stir until it dissolves. Thereafter the solution is loading in an airtight sealed container, thereby preventing the introduction of ambient air, which may contain water vapor, into the container.

[2] = after mixing with water; cited from earlier work

shelf stable (shelf life of solution) [1]: up to 1 year | shelf stable (shelf life of solution) ([1]; listed as ICG): up to one
SMILES: CC1(C)C(/C=C/C=C/C=C/C=C2\N(CCCCS(=O)(=O)O)c3ccc4ccccc4c3C2(C)C)=[N+](CCCCS(=O)(=O)[O-])c2ccc3ccccc3c21 [indocyanine green]
shelf life of ICG solutions (unstable) [2]: a few days
